A word on the melting point: it is the temperature of the solid-liquid transition. Broadly, the MIC is the lowest concentration that inhibits growth of the organism. The low end stands for greater potency, the high end for weaker potency.

These results are taken from patent publication US7563788B2, “Substituted Imidazo[1,2-a]pyridines as Antibacterial Agents” (Pfizer Inc., priority 2004, dated 2009).

Data set [1] deals with Neisseria gonorrhoeae, GC525 (NG-2888). Nature of the data set: In-vitro antibacterial activity, microbroth dilution MIC susceptibility testing. The class given is cell-based. The following applies: gonococcal broth, 20-24 hours at 35° C., lowest concentration preventing visible growth. How it is done: The in-vitro antibacterial activity of selected compounds was determined against a stain of Neisseria gonorrhoeae, GC525 (NG-2888), which is described by Rouquette-Loughlin et al, in Journal of Bacteriology, February 2003, p. 1101-1106, at p. 1103. In general, minimum inhibitory concentration (MIC) susceptibility testing followed procedures recommended by the National Committee for Clinical Laboratory Standards (NCCLS^1-2) or followed the descriptions described below:
Neisseria gonorrhoeae strains were grown on Chocolate Agar II plates (BBL—Becton Dickinson Microbiology Systems, Cockeysville, Md.) and incubated at 35° C. in a humidified 5% CO2 incubator (Forma Scientific, Marietta Ohio). For microbroth dilution MIC testing, N. gonorrhoeae were tested in gonococcal broth (GCB):
Bacterial culture identifications were confirmed by standard microbiological methods.^4 N. gonorrhoeae strains were streaked onto appropriate agar plates for visualization of purity and expected colony morphology. Gram stains were also utilized.
Bacterial stock cultures are stored as frozen suspensions at −70° C. N. gonorrhoeae cultures are suspended in inactivated Horse Serum (Colorado Serum Company, Denver, Colo.) containing 7.5% glucose prior to snap freezing in a dry ice/ethanol bath.
Frozen stock cultures were used as the initial source of organisms for performing microbroth dilution MIC testing. Stock cultures were passed on their respective growth medium at least one growth cycle (18-24 hours) prior to their use. Bacterial culture suspensions were prepared directly from Chocolate Agar II plates into 10 mL cation-adjusted Mueller-Hinton Broth (CAMHB, BBL, # BB215069). Before use, cultures were adjusted to an optical density value of […] on a Perkin-Elmer Lambda EZ150 Spectrophotometer (Wellesley, Mass.) set at a wavelength of 600 nm. Random cultures were plated for validation of actual colony counts. The adjusted cultures were diluted 400-fold (0.25 mL inoculum+100 mL GCB) into gonococcal broth producing a starting inoculum of approximately 5×10^5 cfu/mL. These cultures were inoculated into test plates (100 uL/well) using a Biomek® FX workstation (Beckman Coulter Inc., Fullerton, Calif.). The inoculated plates were placed in stacks of no more than 4 and covered with an empty plate. Plates were incubated for 20-24 hours at 35° C. in a humidified CO2 incubator.
Drug stock solutions (2 mg/mL in DMSO) were prepared on the day of testing. Drugs were weight corrected for assay content where necessary.
Microbroth dilution stock plates were prepared in two dilution series, 64-0.06 ug drug/mL and 1-0.001 ug drug/mL. For the high concentration series, 200 uL of stock solution (2 mg/mL) was added to duplicate rows of a 96-well plate. This was used as the first well in the dilution series. Serial two-fold decremental dilutions were made using a BioMek FX robot (Beckman Coulter Inc., Fullerton, Calif.) with 10 of the remaining 11 wells, each of which contained 100 uL of the appropriate solvent/diluent. Row 12 contained solvent/diluent only and served as the control. For tube one of the low concentration series, 200 uL of a 31.25 ug/mL stock was added to duplicate rows of a 96-well plate. Serial two-fold dilutions were made as described above.
Daughter plates were spotted (3.2 uL/well) from the stock plates listed above using the BioMek FX robot and were inoculated with organism (100 uL/well) as described previously.
After incubation, the degree of growth in each well was read visually with the aid of a Test Reading Mirror (Dynatech Lab 220-16, Dynex Technologies, Chantilly, Va.). 96-well test plates are read in a darkened room with a single light shining from above. The MIC is the lowest concentration of drug that prevents macroscopically visible growth under the conditions of the test. Each drug dilution series was tested in duplicate; identical results are not always obtained. If MIC values in duplicate tests differ by 1 well (two-fold), the […] value is reported. […]
A general note: Broth dilution looks for growth in wells or tubes with falling amounts of substance.

Structures are written as SMILES. Converted amounts (≈) assume the structure as drawn. A value given as a limit tells only on which side of the number the result lay.

As to `CCOC(=O)Nc1cn2ccc(-c3ccc(OC)nc3)cc2n1` [Example 3A, [7-(6-Methoxy-pyridin-3-yl)-imidazo[1,2-a]pyridin-2-yl]-carbamic Acid Ethyl Ester], the melting point was 273 to 279 °C (dec.). Further, in data set [1], the MIC is > 64 µg/mL.

With `CCNC(=O)Nc1cn2ccc(-c3cnc(N(C)C)nc3)cc2n1` [Example 2B, 1-[7-(2-Dimethylamino-pyrimidin-5-yl)-imidazo[1,2-a]pyridin-2-yl]-3-ethyl-urea], the melting point was 259 to 263 °C (dec.). The MIC in data set [1] worked out at 16 µg/mL (≈ 49.2 µM).
